Where two headings read alike, the source gives them in different places. One block for each molecule: values may come before it.
Experiments:
α-glucosidase = α-glucosidase (Saccharomyces cerevisiae, UniProt P38158); experiment: biochemical
Protocol: The α-glucosidase inhibitory assay was performed using a somewhat modified method of Kurihara et al.[44] For every reaction, […] p-nitrophenyl-α-D-glucopyranoside, 50 mL of 0.1 U mL^−1, α-glucosidase in 0.01 M phosphate buffer (pH 7.0), […] of sample solution (various concentrations of compound 1 with 5, 10, 25, 50 µM) were mixed. The mixture was kept at 37 °C for 30 minutes and added with 0.1 M Na2CO3. Mixture after reaction will be measured at a wavelength of 401 nm. The IC50 values represented the inhibitor concentration that suppressed 50% of enzyme activity. […] All experiments were performed in triplicate. The percentage inhibition was calculated using the following equation: α-glucosidase inhibition (%) = (Ac − At)/Ac × 100, where Ac is the absorbance of control (α-glucosidase, without sample) and At is the absorbance of test samples (α-glucosidase, with sample). The experimental results were processed using the GraphPad Prism 8 software.

RAW264.7 cells = experiment: Determination of NO production in LPS-treated RAW264.7 cells (Griess reagent); assay type: cell-based; details: for IC50: Mus musculus
Protocol: The production of nitric oxide (NO) was quantified by measuring the NO levels in cell culture supernatants using a previously method. In brief, RAW264.7 cells (ATCC, Rockville, MD, USA, 1 × 10^5 cells per well) were treated with 1 µg mL^−1 of LPS for 24 h, with and without the test compounds (1–100 µM). After incubation, the supernatant (100 µL) was mixed with 100 µL of Griess reagent. The viability of the remaining cells was assessed using an MTT-based colorimetric assay as described above.

six bacterial strains = experiment: Antibacterial preliminary screening, text statements on all strains together; assay type: cell-based; details: concentration of 10 µM
Protocol: It is based on combined biological activities of reported pyrrole sesquiterpenes and available screening models in our lab, including those regarding anti-inflammatory activities, antibacterial activities, and inhibition of α-glucosidase. […] To further evaluate the biological potential of compounds 1–6, we examined their antibacterial activities through preliminary screening at a concentration of 10 µM. The assays were conducted against three Gram-positive bacterial strains (Staphylococcus aureus, Bacillus subtilis, and Micrococcus luteus) and three Gram-negative strains (Salmonella typhimurium, Escherichia coli, and Klebsiella pneumoniae). This comparative screening aimed to determine whether any of these compounds could inhibit bacterial growth under identical conditions by conducting further experiments.
The antibacterial activities of compounds 1–6 were evaluated in 96-well plates using a modified broth microdilution method previously reported by our group. The MIC of the isolated compounds was determined against Staphylococcus aureus, Bacillus subtilis, Micrococcus luteus, Salmonella typhimurium, Escherichia coli, and Klebsiella pneumonia. Bacterial strains were cultured on TSB (Tryptic Soy Broth) agar plates and incubated at 37 °C for 24 h. […]

Micrococcus luteus = experiment: MIC measurement (broth microdilution); assay type: cell-based; details: Gram-positive; screening at 10.0 µM
Protocol: (§1) The antibacterial activities of compounds 1–6 were evaluated in 96-well plates using a modified broth microdilution method previously reported by our group. The MIC of the isolated compounds was determined against Staphylococcus aureus, Bacillus subtilis, Micrococcus luteus, Salmonella typhimurium, Escherichia coli, and Klebsiella pneumonia. Bacterial strains were cultured on TSB (Tryptic Soy Broth) agar plates and incubated at 37 °C for 24 h. A single colony was transferred to Muller–Hinton broth (MHB), continuously incubated and harvested after 24 h at 37 °C and centrifuged at 250 rpm. The suspensions were adjusted to 0.5 McFarland standard, diluted to achieve a final concentration of approximately 5 × 10^5 CFU mL^−1 and added to each well. All compounds were dissolved in DMSO and dispensed into 96-well plates at a starting concentration of 10 µM. Kanamycin was used as a positive control.

Staphylococcus aureus = experiment: MIC measurement (broth microdilution); assay type: cell-based; details: Gram-positive; screening at 10.0 µM
Protocol: as §1

Escherichia coli = experiment: MIC measurement (broth microdilution); assay type: cell-based; details: Gram-negative; screening at 10.0 µM
Protocol: as §1

Bacillus subtilis = experiment: MIC measurement (broth microdilution); assay type: cell-based; details: Gram-positive; screening at 10.0 µM
Protocol: as §1

Klebsiella pneumoniae = experiment: MIC measurement (broth microdilution); assay type: cell-based; details: Gram-negative; screening at 10.0 µM
Protocol: as §1

Salmonella typhimurium = experiment: MIC measurement (broth microdilution); assay type: cell-based; details: Gram-negative; screening at 10.0 µM
Protocol: as §1, with “The” for “The antibacterial activities of compounds 1–6 were evaluated in 96-well plates using a modified broth microdilution method previously reported by our group. The”

[1] = RAW264.7, 24 h, read-out: NO production (IC50, µM)

α-glucosidase, sequence (P38158 whole entry): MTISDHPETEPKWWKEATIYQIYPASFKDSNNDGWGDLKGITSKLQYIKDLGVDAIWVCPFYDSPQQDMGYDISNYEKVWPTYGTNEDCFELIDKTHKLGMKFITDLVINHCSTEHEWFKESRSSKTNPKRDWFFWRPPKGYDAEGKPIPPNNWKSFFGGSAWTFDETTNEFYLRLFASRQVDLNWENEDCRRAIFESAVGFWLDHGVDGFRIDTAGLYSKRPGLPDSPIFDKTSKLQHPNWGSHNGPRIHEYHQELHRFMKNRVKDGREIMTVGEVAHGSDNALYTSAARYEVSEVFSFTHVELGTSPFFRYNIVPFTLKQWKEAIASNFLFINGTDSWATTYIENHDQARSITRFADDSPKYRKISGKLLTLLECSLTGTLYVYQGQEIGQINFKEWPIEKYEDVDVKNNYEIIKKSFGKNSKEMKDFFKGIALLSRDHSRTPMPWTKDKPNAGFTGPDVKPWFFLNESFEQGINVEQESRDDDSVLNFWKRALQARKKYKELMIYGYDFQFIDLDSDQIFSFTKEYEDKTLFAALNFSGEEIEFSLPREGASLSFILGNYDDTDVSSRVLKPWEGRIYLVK

SMILES: CC[C@H](CC[C@@H](C)[C@H]1CC[C@H]2[C@@H]3CCC4=CC(=O)CC[C@]4(C)[C@H]3CC[C@]12C)C(C)C (stereo in doubt) [Compound 3, stigmast-4-en-3-one]
- IC50 (α-glucosidase): > 50 µM

SMILES: CC1=C(O)C(=O)C=C2C1=CC=C1[C@@]2(C)CC[C@@]2(C)[C@@H]3C[C@](C)(C(=O)O)CC[C@]3(C)CC[C@]12C [Celastrol, reference compound]
- IC50 (RAW264.7 cells; RAW264.7 cells, 1 µg mL^−1 LPS, 24 h, read-out: NO production (IC50)): 1.2 µM

SMILES: CO[C@@H](CC(=O)c1ccc[nH]1)C(N)=O [Compound 1, lotusin A]
- inhibition of microbial growth (six bacterial strains): no inhibition
- IC50 (α-glucosidase; pH 7.0, 37 °C, 30 minutes, read-out: α-Glucosidase (IC50)): 18.2 ± 0.17 µM
- IC50 (RAW264.7 cells; [1]): 21.5 ± 0.3 µM

SMILES: CC(C)CCCC(C)C1CCC2C3CCC4CC(O)CCC4(C)C3CCC12C (centres unmarked) [Compound 2, cholestanol]
- IC50 (α-glucosidase): > 50 µM
- IC50 (RAW264.7 cells; [1]): > 100 µM
- NO production (IC50, µM) (RAW264.7 cells; RAW264.7 cells, 1 µg mL^−1 LPS, 24 h): did not show any activity

SMILES: O=c1c(O)c(-c2ccc(O)c(O)c2)oc2cc(O)cc(O)c12 [Compound 4, quercetin]
- IC50 (α-glucosidase): > 50 µM

SMILES: COc1cc(-c2oc3cc(O)cc(O)c3c(=O)c2O)ccc1O [Compound 5, isorhamnetin]
- IC50 (α-glucosidase): > 50 µM

- IC50 (α-glucosidase; pH 7.0, 37 °C, 30 minutes, class symbol, read-out: α-Glucosidase (IC50)): > 50 µM
SMILES: O=c1cc(-c2ccc(O)cc2O)oc2cc(O)cc(O)c12 [Compound 6, norartocarpetin]

- MIC (10.0 µM) Micrococcus luteus (Micrococcus luteus): A.
- MIC (10.0 µM) Staphylococcus aureus (Staphylococcus aureus): A.
- MIC (10.0 µM) Escherichia coli (Escherichia coli): A.
- MIC (10.0 µM) Bacillus subtilis (Bacillus subtilis): A.
- MIC (10.0 µM) Klebsiella pneumoniae (Klebsiella pneumoniae): A.
- MIC (10.0 µM) Salmonella typhimurium (Salmonella typhimurium): A.
SMILES: NC[C@H]1O[C@H](O[C@H]2[C@H](O)[C@@H](O[C@H]3O[C@H](CO)[C@@H](O)[C@H](N)[C@H]3O)[C@H](N)C[C@@H]2N)[C@H](O)[C@@H](O)[C@@H]1O [Kanamycin]

From publication PMC12705226, “Lotusin A: a novel pyrrole terpenoid hydrid from lotus roots (Nelumbo nucifera Gaertn.)” (RSC Advances, 2025)
